Source: patent US10336697B2, “Spiro[cyclobutane-1,3′-indolin]-2′-one derivatives as bromodomain inhibitors” (Orion Corporation, priority 2015, dated 2019)
pIC50: −log10 of the molar value.

Biological target: Bet BRD4 full length bromo-domain protein (Homo sapiens, UniProt O60885)
Test: Bet bromodomain TR-FRET assay (displacement of acetyl histone peptide)
Format: binding
Details: Bet BRD4 full length bromodomain protein, 300 nM acetyl histone peptide substrate, read-out: IC50

Structure (SMILES) | pIC50
CN1CCC(NC(=O)c2cc(NS(=O)(=O)c3ccc(C#N)cc3F)cc3c2NC(=O)C32CCC2)CC1 [Compound 81, 5′-((4—Cyano-2-fluorophenyl)sulfonamido)-N-(1-methylpiperidin-4-yl)-2′-oxospiro[cyclobutane-1,3′-indoline]-7′-carboxamide] | < 6.00
CN1CCC(NC(=O)c2cc(NS(=O)(=O)C3CCCCC3)cc3c2NC(=O)C32CCC2)CC1 [Compound 83, 5′-(Cyclohexanesulfonamido)-N-(1-methylpiperidin-4-yl)-2′-oxospiro[cyclobutane-1,3′-indoline]-7′-carboxamide] | 6.00 to 6.22
CCOc1ccccc1S(=O)(=O)Nc1cc(C(=O)NC2CCN(C)CC2)c2c(c1)C1(CCC1)C(=O)N2 [Compound 84, 5′-(2-Ethoxyphenylsulfonamido)-N-(1-methylpiperidin-4-yl)-2′-oxospiro[cyclobutane-1,3′-indoline]-7′-carboxamide] | 6.00 to 6.22
CN1CCC(NC(=O)c2cc(NS(=O)(=O)N3CCCCC3)cc3c2NC(=O)C32CCC2)CC1 [Compound 85, N-(1-methylpiperidin-4-yl)-2′-oxo-5′-(piperidine-1-sulfon amido)spiro[cyclobutane-1,3′-indoline]-7′-carboxamide] | < 6.00
CN1CCC(NC(=O)c2cc(NS(=O)(=O)c3cc(F)ccc3F)cc3c2NC(=O)C32CCC2)CC1 [Compound 86, 5′-(2,5-Difluorophenylsulfonamido)-N-(1-methylpiperidin-4-yl)-2′-oxospiro[cyclobutane-1,3′-indoline]-7′-carboxamide] | > 6.22
COc1ccccc1S(=O)(=O)Nc1cc(Cc2cccnc2)c2c(c1)C1(CCC1)C(=O)N2 [Compound 87, 2-Methoxy-N-(2′-oxo-7′-(pyridin-3-ylmethyl)spiro[cyclobutane-1,3′-indolin]-5′-yl)benzenesulfonamide] | > 6.22
O=C1Nc2c(-c3ccc4c(c3)CNCC4)cc(NS(=O)(=O)c3ccc(F)cc3F)cc2C12CCC2 [Compound 88, 2,4-Difluoro-N-(2′-oxo-7′-(1,2,3,4-tetrahydroisoquinolin-7-yl)spiro-[cyclobutane-1,3′-indolin]-5′-yl)benzenesulfonamide] | > 6.22
CN1CCC(c2cc(NS(=O)(=O)c3ccc(F)cc3F)cc3c2NC(=O)C32CCC2)CC1 [Compound 89, 2,4-Difluoro-N-(7′-(1-methylpiperidin-4-yl)-2′-oxospiro[cyclobutane-1,3′-indolin]-5′-yl)benzenesulfonamide] | > 6.22
COc1ccc(S(=O)(=O)Nc2cc(C3CCNCC3)c3c(c2)C2(CCC2)C(=O)N3)c(OC)c1 [Compound 92, 2,4-Dimethoxy-N-(2′-oxo-7′-(piperidin-4-yl)spiro[cyclobutane-1,3′-indolin]-5′-yl)benzenesulfonamide] | > 6.22
COc1ccc(S(=O)(=O)Nc2cc(Cc3ccccc3)c3c(c2)C2(CCC2)C(=O)N3)c(F)c1 [Compound 93, N-(7′-benzyl-2′-oxospiro[cyclobutane-1,3′-indolin]-5′-yl)-2-fluoro-4-methoxybenzenesulfonamide] | > 6.22
COc1cc(F)ccc1S(=O)(=O)Nc1cc(Cc2ccccc2)c2c(c1)C1(CCC1)C(=O)N2 [Compound 94, N-(7′-benzyl-2′-oxospiro[cyclobutane-1,3′-indolin]-5′-yl)-4-fluoro-2-methoxybenzenesulfonamide] | > 6.22
COc1ccc(S(=O)(=O)Nc2cc(Cc3cccc(F)c3)c3c(c2)C2(CCC2)C(=O)N3)c(F)c1 [Compound 95, 2-Fluoro-N-(7′-(3-fluorobenzyl)-2′-oxospiro[cyclobutane-1,3′-indolin]-5′-yl)-4-methoxybenzenesulfonamide] | > 6.22
COc1cc(F)ccc1S(=O)(=O)Nc1cc(Cc2cccc(F)c2)c2c(c1)C1(CCC1)C(=O)N2 [Compound 96, 4-Fluoro-N-(7′-(3-fluorobenzyl)-2′-oxospiro[cyclobutane-1,3′-indolin]-5′-yl)-2-methoxybenzenesulfonamide] | > 6.22
COc1ccc(S(=O)(=O)Nc2cc(C3CCN(C)CC3)c3c(c2)C2(CCC2)C(=O)N3)c(F)c1 [Compound 98, 2-Fluoro-4-methoxy-N-(7′-(1-methylpiperidin-4-yl)-2′-oxospiro-[cyclobutane-1,3′-indolin]-5′-yl)benzenesulfonamide] | > 6.22
O=C1Nc2c(-c3ccc(O)nc3)cc(NS(=O)(=O)c3ccc(F)cc3F)cc2C12CCC2 [Compound 99, 2,4-Difluoro-N-(7′-(6-hydroxypyridin-3-yl)-2′-oxospiro [cyclobutane-1,3′-indolin]-5′-yl)benzenesulfonamide] | 6.00 to 6.22
O=C1Nc2c(-c3ccnc(O)c3)cc(NS(=O)(=O)c3ccc(F)cc3F)cc2C12CCC2 [Compound 100, 2,4-difluoro-N-(7′-(2-hydroxypyridin-4-yl)-2′-oxospiro[cyclobutane-1,3′-indolin]-5′-yl)benzenesulfonamide] | < 6.00
O=C1Nc2c(NC3CCNCC3F)cc(NS(=O)(=O)c3ccc(F)cc3F)cc2C12CCC2 (stereo not shown) [Compound 102, 2,4-Difluoro-N-(7′-((3-fluoropiperidin-4-yl)amino)-2′-oxospiro[cyclobutane-1,3′-indolin]-5′-yl)benzenesulfonamide] | 6.00 to 6.22

Structure (SMILES) | pIC50
CC1(C)CNCCC1Nc1cc(NS(=O)(=O)c2ccc(F)cc2F)cc2c1NC(=O)C21CCC1 (stereo not shown) [Compound 103, N-(7′-((3,3-dimethylpiperidin-4-yl)amino)-2′-oxospiro[cyclobutane-1,3′-indolin]-5′-yl)-2,4-difluorobenzenesulfonamide] | > 6.22
O=C1CC(c2cc(NS(=O)(=O)c3ccc(F)cc3F)cc3c2NC(=O)C32CCC2)CCN1 (stereo not shown) [Compound 104, 2,4-Difluoro-N-(2′-oxo-7′-(2-oxopiperidin-4-yl)spiro[cyclobutane-1,3′-indolin]-5′-yl)benzenesulfonamide] | > 6.22
O=C1CCC(c2cc(NS(=O)(=O)c3ccc(F)cc3F)cc3c2NC(=O)C32CCC2)CN1 (stereo not shown) [Compound 105, 2,4-Difluoro-N-(2′-oxo-7′-(6-oxopiperidin-3-yl)spiro [cyclobutane-1,3′-indolin]-5′-yl)benzenesulfonamide] | > 6.22
CN1CCc2ccc(-c3cc(NS(=O)(=O)c4ccc(F)cc4F)cc4c3NC(=O)C43CCC3)cc2C1 [Compound 106, 2,4-Difluoro-N-(7′-(2-methyl-1,2,3,4-tetrahydroisoquinolin-7-yl)-2′-oxospiro[cyclobutane-1,3′-indolin]-5′-yl)benzenesulfonamide] | > 6.22
COc1ccccc1S(=O)(=O)Nc1cc(C(C)c2ccccc2)c2c(c1)C1(CCC1)C(=O)N2 (stereo not shown) [Compound 113, 2-Methoxy-N-(2′-oxo-7′-(1-phenylethyl)spiro [cyclobutane-1,3′-indolin]-5′-yl)benzenesulfonamide] | > 6.22
CN1CCC(CCc2cc(NS(=O)(=O)c3ccc(F)cc3F)cc3c2NC(=O)C32CCC2)CC1 [Compound 116, 2,4-Difluoro-N-(7′-(2-(1-methylpiperidin-4-yl)ethyl)-2′-oxospiro-[cyclobutane-1,3′-indolin]-5′-yl)benzenesulfonamide] | > 6.22
COc1ccccc1NC(=O)Nc1cc(C2CC2)c2c(c1)C1(CCC1)C(=O)N2 [Compound 121, 1-(7′—Cyclopropyl-2′-oxospiro[cyclobutane-1,3′-indolin]-5′-yl)-3-(2-methoxyphenyl)urea] | > 6.22
COc1ccccc1S(=O)(=O)Nc1cc(C(C)c2cccnc2)c2c(c1)C1(CCC1)C(=O)N2 (stereo not shown) [Compound 122, 2-Methoxy-N-(2′-oxo-7′-(1-(pyridin-3-yl)ethyl)spiro[cyclobutane-1,3′-indolin]-5′-yl)benzenesulfonamide] | > 6.22
COc1ccccc1S(=O)(=O)Nc1cc(C(C)c2ccccn2)c2c(c1)C1(CCC1)C(=O)N2 (stereo not shown) [Compound 123, 2-Methoxy-N-(2′-oxo-7′-(1-(pyridin-2-yl)ethyl)spiro [cyclobutane-1,3′-indolin]-5′-yl)benzenesulfonamide] | > 6.22
COc1ccccc1S(=O)(=O)Nc1cc(Oc2ccccn2)c2c(c1)C1(CCC1)C(=O)N2 [Compound 124, 2-Methoxy-N-(2′-oxo-7′-(pyridin-2-yloxy)spiro[cyclobutane-1,3′-indolin]-5′-yl)benzenesulfonamide] | > 6.22
COc1ccccc1S(=O)(=O)Nc1cc(C(F)c2ccccc2)c2c(c1)C1(CCC1)C(=O)N2 (stereo not shown) [Compound 125, N-(7′-(fluoro(phenyl)methyl)-2′-oxospiro[cyclobutane-1,3′-indolin]-5′-yl)-2-methoxybenzenesulfonamide] | > 6.22
CC(c1ccccc1)c1cc(NS(=O)(=O)c2ccc(F)cc2F)cc2c1NC(=O)C21CCC1 (stereo not shown) [Compound 126, 2,4-Difluoro-N-(2′-oxo-7′-(1-phenylethyl)spiro[cyclobutane-1,3′-indolin]-5′-yl)benzenesulfonamide] | 6.00 to 6.22
COc1ccc(F)cc1S(=O)(=O)Nc1cc(OC2CCN(C)CC2)c2c(c1)C1(CCC1)C(=O)N2 [Compound 129, 5-Fluoro-2-methoxy-N-(7′-((1-methylpiperidin-4-yl)oxy)-2′-oxospiro[cyclobutane-1,3′-indolin]-5′-yl)benzenesulfonamide] | > 6.22
CN1CCC(Oc2cc(NS(=O)(=O)c3ccc(Cl)cc3F)cc3c2NC(=O)C32CCC2)CC1 [Compound 130, 4-Chloro-2-fluoro-N-(7′-((1-methylpiperidin-4-yl)oxy)-2′-oxospiro[cyclobutane-1,3′-indolin]-5′-yl)benzenesulfonamide] | > 6.22
CN1CCCC(Oc2cc(NS(=O)(=O)c3ccc(Cl)cc3F)cc3c2NC(=O)C32CCC2)C1 (stereo not shown) [Compound 131, 4-Chloro-2-fluoro-N-(7′-((1-methylpiperidin-3-yl)oxy)-2′-oxospiro[cyclobutane-1,3′-indolin]-5′-yl)benzenesulfonamide] | 6.00 to 6.22
CN1CCC(Oc2cc(NS(=O)(=O)c3ccc(F)cc3Br)cc3c2NC(=O)C32CCC2)CC1 [Compound 132, 2-Bromo-4-fluoro-N-(7′-((1-methylpiperidin-4-yl)oxy)-2′-oxospiro[cyclobutane-1,3′-indolin]-5′-yl)benzenesulfonamide] | > 6.22
CN1CCC(Oc2cc(NS(=O)(=O)c3ccccc3Cl)cc3c2NC(=O)C32CCC2)CC1 [Compound 133, 2-Chloro-N-(7′-((1-methylpiperidin-4-yl)oxy)-2′-oxospiro[cyclobutane-1,3′-indolin]-5′-yl)benzenesulfonamide] | > 6.22
